Measurements taken from patent US8299089B2, “Multi-arm polymeric conjugates of 7-ethyl-10-hydroxycamptothecin for treatment of breast, colorectal, pancreatic, ovarian and lung cancers” (priority 2006, dated 2012).

Key:
Colo 205 = assay: In vitro cytotoxicity, MTS assay, Colo 205; format: cell-based
Description: (§1) In Table 2, the cytotoxicity (μM of each compound that results in an IC50) provides an indication of the in vitro anti-tumor potency of each compound. This study was used to determine the effect of PEGylation of four-arm PEGylated 7-ethyl-10-hydroxycamptothecin conjugates. […] Cells were incubated with drugs for 72 hours at 37° C. Following incubation, MTS dye was added and formation of a colored product (formazan) was measured at 490 nm.

HT29 = assay: In vitro cytotoxicity, MTS assay, HT29; format: cell-based
Description: as §1

A549 = assay: In vitro cytotoxicity, MTS assay, A549; format: cell-based
Description: as §1

PANC-1 = assay: In vitro cytotoxicity, MTS assay, PANC-1; format: cell-based
Description: as §1

MIA PaCa-2 = assay: In vitro cytotoxicity, MTS assay, MIA PaCa-2; format: cell-based
Description: as §1

ASPC-1 = assay: In vitro cytotoxicity, MTS assay, ASPC-1; format: cell-based
Description: as §1

BxPC-3 = assay: In vitro cytotoxicity, MTS assay, BxPC-3; format: cell-based
Description: as §1

OVCAR-3 = assay: In vitro cytotoxicity, MTS assay, OVCAR-3; format: cell-based
Description: as §1

OV90 = assay: In vitro cytotoxicity, MTS assay, OV90; format: cell-based
Description: as §1

OVCAR-8 = assay: In vitro cytotoxicity, MTS assay, OVCAR-8; format: cell-based
Description: as §1

A2780 = assay: In vitro cytotoxicity, MTS assay, A2780; format: cell-based
Description: as §1

SK-0V-3 = assay: In vitro cytotoxicity, MTS assay, SK-0V-3; format: cell-based
Description: as §1

[1] = Solubility in aqueous saline solution; format: physicochemical
[2] = Maximum tolerated dose (MTD) in nude mice; conditions: mouse, in vivo
Description: Mice were monitored for 14 days for mortality and signs of illness and sacrificed when body weight loss was >20% of the pretreatment body weight.

[3] = system: human mammary carcinoma (MX-1); assay: Single dose efficacy in MX-1 breast tumor xenograft mouse model; format: in vivo, nude mice; conditions: day 31
Description: Following at least one week of acclimation, tumors were established by implanting small tumor fragments from donor mice into a single subcutaneous site, on the left auxiliary flank region of nude mice. The tumor implantation site was observed twice weekly and measured once palpable. The tumor volume for each mouse was determined by measuring two dimensions with calipers and calculated using the formula: tumor volume=(length×width^2). […] Drugs were administered intravenously via the tail vein as a single dose of 20 mg/kg body weight of a mouse. […] Mouse weight and tumor sizes were measured at the beginning of study and on the 31st day after the single dose administration.
The overall growth of tumors was calculated as the mean tumor volume (TV). A percent treatment over control (T/C) was also calculated. The percentage of tumor regression indicates the in vivo activity of each compound.

[4] = system: human mammary carcinoma (MX-1); assay: Multiple dose efficacy in MX-1 breast tumor xenograft mouse model; format: in vivo, nude mice; conditions: i.v. 5 mg/kg/dose (q2d×6), day 31
Description: The mice were dosed 5 mg/kg/day […] (every 2 days [q×2d]×6). Mouse weight and tumor sizes were monitored up to the 31st day after the first dose administration and subsequent administrations.

[5] = system: human mammary, MX-1 tumors; assay: Efficacy in small and large MX-1 breast tumor xenografted mice; format: in vivo, nude mice
Description: The antitumor efficacy of 4armPEG-Gly-(7-ethyl-10-hydroxycamptothecin) was evaluated in nude mice bearing small (about 100 mm^3) or large (about 450 mm^3) established human mammary, MX-1 tumors. The antitumor therapeutic activities were determined in mice both with a single dose or multiple dose regimens.
Four of six mice were cured as of day 54. […] All animals were sacrificed by day 20 due to excessive tumor burden.

[6] = system: MiaPaCa-2 pancreatic tumor cells; assay: Efficacy in MiaPaCa-2 pancreatic tumor xenograft mice; format: in vivo
[7] = system: HT-29 colorectal tumor cells; assay: Efficacy in HT-29 colorectal tumor xenograft mice; conditions: during the treatment
[8] = Hydrolysis / 7-ethyl-10-hydroxycamptothecin release in human plasma; format: in vitro ADME; conditions: for Doubling Time in Plasma, Human: 7-ethyl-10-hydroxycamptothecin formation rate from conjugates; for t1/2 in Human Plasma: PEG conjugate half life
Description: The aqueous stability and hydrolysis properties in rat and human plasma were monitored using UV based HPLC methods.

[9] = 7-ethyl-10-hydroxycamptothecin release in mouse plasma; format: in vitro ADME; conditions: 7-ethyl-10-hydroxycamptothecin formation rate from conjugates
[10] = 7-ethyl-10-hydroxycamptothecin release in rat plasma; format: in vitro ADME; conditions: 7-ethyl-10-hydroxycamptothecin formation rate from conjugates

CCc1c2c(nc3ccc(O)cc13)-c1cc3c(c(=O)n1C2)COC(=O)[C@]3(O)CC [7-ethyl-10-hydroxycamptothecin]
IC50 (Colo 205; Table 2, Colo 205, 72 hours, Compound 9 in 7-ethyl-10-hydroxycamptothecin equivalents, average ± SD (n = 3)): 200 ± 200 nM | IC50 (Colo 205; Table 3, Colo 205 (colorectal)): 80 nM | IC50 (HT29; Table 2, HT29, 72 hours, Compound 9 in 7-ethyl-10-hydroxycamptothecin equivalents, average ± SD (n = 3)): 100 ± 40 nM | IC50 (HT29; Table 3, HT29 (colorectal)): 80 nM | IC50 (A549; Table 2, A549, 72 hours, Compound 9 in 7-ethyl-10-hydroxycamptothecin equivalents, average ± SD (n = 3)): 1000 ± 100 nM | IC50 (PANC-1; Table 2, PANC-1, 72 hours, Compound 9 in 7-ethyl-10-hydroxycamptothecin equivalents, average ± SD (n = 3)): 560 ± 380 nM | IC50 (MIA PaCa-2; Table 2, MIA PaCa-2, 72 hours, Compound 9 in 7-ethyl-10-hydroxycamptothecin equivalents, no SD = average of two replicates): 180 nM | IC50 (ASPC-1; Table 2, ASPC-1, 72 hours, Compound 9 in 7-ethyl-10-hydroxycamptothecin equivalents, average ± SD (n = 3)): 640 ± 130 nM | IC50 (BxPC-3; Table 2, BxPC-3, 72 hours, Compound 9 in 7-ethyl-10-hydroxycamptothecin equivalents, average ± SD (n = 3)): 540 ± 580 nM | IC50 (OVCAR-3; Table 2, OVCAR-3, 72 hours, Compound 9 in 7-ethyl-10-hydroxycamptothecin equivalents, average ± SD (n = 3)): 100 ± 20 nM | IC50 (OV90; Table 2, OV90, 72 hours, Compound 9 in 7-ethyl-10-hydroxycamptothecin equivalents, average ± SD (n = 3)): 100 ± 20 nM | IC50 (OVCAR-8; Table 2, OVCAR-8, 72 hours, Compound 9 in 7-ethyl-10-hydroxycamptothecin equivalents, average ± SD (n = 3)): 30 ± 10 nM | IC50 (A2780; Table 2, A2780, 72 hours, Compound 9 in 7-ethyl-10-hydroxycamptothecin equivalents, average ± SD (n = 3)): 20 ± 10 nM | IC50 (SK-0V-3; Table 2, SK-0V-3, 72 hours, Compound 9 in 7-ethyl-10-hydroxycamptothecin equivalents, average ± SD (n = 3)): 200 ± 100 nM | Solubility in Saline [1]: ^a7-ethyl-10-hydroxycamptothecin is not soluble in saline.

CCc1c2c(nc3ccc(OC(=O)N4CCC(N5CCCCC5)CC4)cc13)-c1cc3c(c(=O)n1C2)COC(=O)[C@]3(O)CC [CPT-11, Irinotecan, reference compound]
MTD at 14 days ([2]; multiple dose (q2d×5)): 40 mg/kg | MTD at 14 days ([2]; single dose): 80 mg/kg | IC50 (Colo 205; Homo sapiens, COLO 205): 20000 nM | IC50 (Colo 205; Homo sapiens, COLO 205, 72 h): 11000 ± 1400 nM | IC50 (HT29; Homo sapiens, HT-29, 72 h): 27000 ± 8600 nM | IC50 (HT29; Homo sapiens, HT-29, Table 3, HT29 (colorectal)): 56000 nM | IC50 (A549; Homo sapiens, A549, 72 h): 67000 ± 17000 nM | IC50 (A549; Homo sapiens, Table 3, A549 (lung)): 13000 nM | IC50 (PANC-1; Homo sapiens, PANC-1, 72 h): 34000 ± 16000 nM | IC50 (MIA PaCa-2; Homo sapiens, MIA PaCa-2, 72 h): 67000 ± 46000 nM | IC50 (ASPC-1; Homo sapiens, ASPC1, 72 h): 33000 ± 1000 nM | IC50 (BxPC-3; Homo sapiens, BXPC-3, 72 h): 44000 ± 44000 nM | IC50 (OVCAR-3; Homo sapiens, OVCAR-3, 72 h): 20000 ± 7100 nM | IC50 (OVCAR-3; Homo sapiens, Table 3, OVCAR-3 (ovarian)): 41000 nM | IC50 (OV90; Homo sapiens, OV-90, 72 h): 18000 ± 4800 nM | IC50 (OVCAR-8; Homo sapiens, OVCAR-8, 72 h): 9000 ± 1300 nM | IC50 (A2780; Homo sapiens, A2780, 72 h): 8000 ± 3500 nM | IC50 (SK-0V-3; 72 h): 52000 ± 8500 nM | Mean TV ± SD ([3]; single dose i.v. 20 mg/kg (conjugate as 7-ethyl-10-hydroxycamptothecin equivalent)): 845 ± 50 mm^3 | Cures ([3]; single dose i.v. 20 mg/kg): 0% | F/I ([3]; single dose i.v. 20 mg/kg): 843% | Median TV ([3]; single dose i.v. 20 mg/kg): 845 mm^3 | Regressions ([3]; single dose i.v. 20 mg/kg): 0% | Survival ([3]; single dose i.v. 20 mg/kg): 0% | T/C ([3]; single dose i.v. 20 mg/kg): 108% | TGI ([3]; single dose i.v. 20 mg/kg): 26% | Chg in TV ± SD [4]: 423 ± 243% | Cures [4]: 0% | F/I [4]: 594% | Mean TV ± SD [4]: 632 ± 698 mm^3 | Median TV [4]: 340 mm^3 | Regressions [4]: 0% | Survival [4]: 0% | T/C [4]: 43% | TGI [4]: 44% | effect on body weight ([5]; given at the MTD, for the duration of the treatment): did not significantly decrease the body weight | tumor growth inhibition ([5]; large tumors, 10 mg/kg q2d×5): effective TGI until treatment was discontinued, after which tumors regrew | mice in which tumors regrew ([5]; large tumors, 40 mg/kg q2d×5, after ~5 weeks): four of the six | TGI ([5]; large tumors, multiple doses at MTD 40 mg/kg q2d×5, as of day 13): ~95% | TGI ([5]; large tumors, single MTD 80 mg/kg, day 13): 70% | TGI ([5]; small tumors (about 100 mm^3), multiple doses 20 mg/kg q2d×5, as of day 31): 44% | TGI ([5]; small tumors (about 100 mm^3), single dose 20 mg/kg): did not inhibit tumor growth | TGI ([6]; multiple doses i.v. (10 mg/kg/dose for five days; CPT-11 also 40 mg/kg/dose)): 34% | TGI ([6]; single dose i.v. (30 mg/kg; CPT-11 also 80 mg/kg)): 0% | effect on body weight [7]: did not significantly decrease the body of weight

^40K4arm-PEG-Sar-(20)-(7-ethyl-10-hydroxycamptothecin) [Compound 23]
IC50 (Colo 205; Table 3, Colo 205 (colorectal)): 40 nM | IC50 (HT29; Table 3, HT29 (colorectal)): 270 nM | IC50 (A549; Table 3, A549 (lung)): 11000 nM | IC50 (OVCAR-3; Table 3, OVCAR-3 (ovarian)): 170 nM | Chg in TV ± SD [4]: −87 ± 12% | Cures [4]: 100% | F/I [4]: 13% | Mean TV ± SD [4]: 12 ± 10 mm^3 | Median TV [4]: 14.6 mm^3 | Regressions [4]: 100% | Survival [4]: 100% | T/C [4]: 1.9% | TGI [4]: 99% | Doubling Time in Plasma, Human [8]: 28.8 min | t1/2 in Human Plasma [8]: 19.0 min | Doubling Time in Plasma, Mouse [9]: 43.4 min | Doubling Time in Plasma, Rat [10]: 481 min

^40k4arm-PEG-Ala-(20)-(7-ethyl-10-hydroxycamptothecin) [Compound 12]
IC50 (Colo 205; Table 3, Colo 205 (colorectal)): 30 nM | IC50 (HT29; Table 3, HT29 (colorectal)): 160 nM | IC50 (A549; Table 3, A549 (lung)): 4400 nM | IC50 (OVCAR-3; Table 3, OVCAR-3 (ovarian)): 140 nM | Chg in TV ± SD [4]: −91 ± 11% | Cures [4]: 67% | F/I [4]: 10% | Mean TV ± SD [4]: 10 ± 11 mm^3 | Median TV [4]: 9.6 mm^3 | Regressions [4]: 100% | Survival [4]: 100% | T/C [4]: 1.2% | TGI [4]: 99% | Solubility in Saline [1]: 121 mg/mL | Doubling Time in Plasma, Human [8]: 51.9 min | t1/2 in Human Plasma [8]: 12.5 min | Doubling Time in Plasma, Mouse [9]: 45.8 min | Doubling Time in Plasma, Rat [10]: 753 min

^40k4arm-PEG-Met-(20)-(7-ethyl-10-hydroxycamptothecin) [Compound 18]
IC50 (Colo 205; Table 3, Colo 205 (colorectal)): 30 nM | IC50 (HT29; Table 3, HT29 (colorectal)): 140 nM | IC50 (A549; Table 3, A549 (lung)): 1600 nM | IC50 (OVCAR-3; Table 3, OVCAR-3 (ovarian)): 130 nM | Chg in TV ± SD [4]: −94 ± 7% | Cures [4]: 100% | F/I [4]: 7.8% | Mean TV ± SD [4]: 8 ± 9 mm^3 | Median TV [4]: 5.6 mm^3 | Regressions [4]: 100% | Survival [4]: 100% | T/C [4]: 0.7% | TGI [4]: 99% | Solubility in Saline [1]: 142 mg/mL | Doubling Time in Plasma, Human [8]: 22.2 min | t1/2 in Human Plasma [8]: 26.8 min | Doubling Time in Plasma, Mouse [9]: 41.9 min | Doubling Time in Plasma, Rat [10]: 1920 min
